Laboratory results as given in patent publication US7307044B2, “3-biphenyl-substituted-3-substituted-4-ketolactam and ketolactone and their utilization as pesticide” (Bayer CropScience AG, priority 2001, dated 2007).

Tests used:
Assay type in all cases: in vivo
[1] = test system: green peach aphid (Myzus persicae); experiment: Myzus test; details: 500 ppm, cabbage leaves dipped
Method: Myzus Test Solvent: 7 parts by weight of dimethylformamide Emulsifier: 2 parts by weight of alkylaryl polyglycol ether To produce a suitable preparation of active compound, 1 part by weight of active compound is mixed with the stated amounts of solvent and emulsifier, and the concentrate is diluted with emulsifier-containing water to the desired concentration. Cabbage leaves (Brassica oleracea) which are heavily infested by the green peach aphid (Myzus persicae) are treated by being dipped into the preparation of active compound of the desired concentration. After the desired period of time, the kill in % is determined. 100% means that all aphids have been killed; 0% means that none of the aphids have been killed.

[2] = test system: larvae of the mustard beetle (Phaedon cochleariae); experiment: Phaedon larvae test; details: 500 ppm, cabbage leaves dipped
Method: (§1) Phaedon Larvae Test Solvent: 7 parts by weight of dimethylformamide Emulsifier: 2 parts by weight of alkylaryl polyglycol ether To produce a suitable preparation of active compound, 1 part by weight of active compound is mixed with the stated amounts of solvent and emulsifier, and the concentrate is diluted with emulsifier-containing water to the desired concentration. Cabbage leaves (Brassica oleracea) are treated by being dipped into the preparation of active compound of the desired concentration and are populated with larvae of the mustard beetle (Phaedon cochleariae) while the leaves are still moist. After the desired period of time, the kill in % is determined. 100% means that all beetle larvae have been killed; 0% means that none of the beetle larvae have been killed.

[3] = test system: caterpillars of the armyworm (Spodoptera frugiperda); experiment: Spodoptera frugiperda test; details: 500 ppm, cabbage leaves dipped
Method: as §1, with “Spodoptera frugiperda” for “Phaedon Larvae”, “caterpillars” for “larvae”, “armyworm (Spodoptera frugiperda)” for “mustard beetle (Phaedon cochleariae)”, “caterpillars” for “beetle larvae”

[4] = test system: greenhouse red spider mite (Tetranychus urticae); experiment: Tetranychus test (OP-resistent/dip treatment); details: 100 ppm, bean plants dipped
Method: Tetranychus Test (OP-Resistent/Dip Treatment)
Solvent: 7 parts by weight of dimethylformamide
Emulsifier: 2 parts by weight of alkylaryl polyglycol ether
To produce a suitable preparation of active compound, 1 part by weight of active compound is mixed with the stated amounts of solvent and emulsifier, and the concentrate is diluted with emulsifier-containing water to the desired concentration.
Bean plants (Phaseolus vulgaris) which are heavily infested by all stages of the greenhouse red spider mite (Tetranychus urticae) are dipped into a preparation of active compound of the desired concentration.
After the desired period of time, the effect in % is determined. 100% means that all spider mites have been killed; 0% means that none of the spider mites have been killed.

[5] = test system: Alopecurus; experiment: Post-emergence test (greenhouse); details: after three weeks
Method: (§2) Solvent: 5 parts by weight of acetone
(§3) Emulsifier: 1 part by weight of alkylaryl polyglycol ether
(§4) To produce a suitable preparation of active compound, 1 part by weight of active compound is mixed with the stated amount of solvent, the stated amount of emulsifier is added and the concentrate is diluted with water to the desired concentration.
(§5) Test plants of a height of 5-15 cm are sprayed with the preparation of active compound such that the particular amounts of active compound desired are applied per unit area. The concentration of the spray liquor is chosen such that the particular amounts of active compound desired are applied in 1000 l of water/ha.
(§6) After three weeks, the degree of damage to the plants is rated in % damage in comparison to the development of the untreated control.
(§7) The figures denote: • 0%=no effect (like untreated control) • 100%=total destruction

[6] = test system: Avena fatua; experiment: Post-emergence test (greenhouse); details: after three weeks
Method: as §2, §3, §4, §5, §6, §7

[7] = test system: Digitaria; experiment: Post-emergence test (greenhouse); details: 125 g ai/ha, after three weeks
Method: as §2, §3, §4, §5, §6, §7

[8] = test system: Echinochloa; experiment: Post-emergence test (greenhouse); details: after three weeks
Method: as §2, §3, §4, §5, §6, §7

[9] = test system: Setaria; experiment: Post-emergence test (greenhouse); details: after three weeks
Method: as §2, §3, §4, §5, §6, §7

[10] = test system: Sugar beet; experiment: Post-emergence test (greenhouse); details: after three weeks
Method: as §2, §3, §4, §5, §6, §7

[11] = test system: Plasmopara viticola; experiment: Plasmopara test (grapevine)/protective; details: protective, evaluation 6 days after inoculation; for % efficacy: 100 g/ha
Method: Plasmopara Test (Grapevine)/Protective Solvents: 24.5 parts by weight of acetone • 24.5 parts by weight of dimethylacetamide Emulsifier: 1.0 part by weight of alkylaryl polyglycol ether To produce a suitable preparation of active compound, 1 part by weight of active compound is mixed with the stated amounts of solvent and emulsifier, and the concentrate is diluted with water to the desired concentration. To test for protective activity, young plants are sprayed with the preparation of active compound at the stated application rate. After the spray coating has dried on, the plants are inoculated with an aqueous spore suspension of Plasmopara viticola and then remain in an incubation cabin at 20° C. and 100% relative atmospheric humidity for 1 day. The plants are then placed in a greenhouse at about 21° C. and about 90% atmospheric humidity for 4 days. The plants are then moistened and placed in an incubation cabin for 1 day.

[12] = test system: apple scab pathogen Venturia inaequalis; experiment: Venturia test (apple)/protective; details: protective, evaluation 10 days after inoculation; for % efficacy: 100 g/ha
Method: Venturia Test (Apple)/Protective Solvents: 24.5 parts by weight of acetone • 24.5 parts by weight of dimethylacetamide Emulsifier: 1.0 part by weight of alkylaryl polyglycol ether To produce a suitable preparation of active compound, 1 part by weight of active compound is mixed with the stated amounts of solvent and emulsifier, and the concentrate is diluted with water to the desired concentration. To test for protective activity, young plants are sprayed with the preparation of active compound at the stated application rate. After the spray coating has dried on, the plants are inoculated with an aqueous conidia suspension of the apple scab pathogen Venturia inaequalis and then remain in an incubation cabin at about 20° C. and 100% relative atmospheric humidity for 1 day. The plants are then placed in a greenhouse at about 21° C. and a relative atmospheric humidity of about 90%.

[13] = test system: Amaranthus; experiment: Post-emergence test (greenhouse); details: 250 g ai/ha, after three weeks
Method: as §2, §3, §4, §5, §6, §7

[14] = test system: Sinapis; experiment: Post-emergence test (greenhouse); details: 250 g ai/ha, after three weeks
Method: as §2, §3, §4, §5, §6, §7

[15] = test system: caterpillars of the diamondback moths (Plutella xylostella); experiment: Plutella test; details: 500 ppm, cabbage leaves dipped
Method: as §1, with “Plutella” for “Phaedon Larvae”, “caterpillars” for “larvae”, “diamondback moths (Plutella xylostella)” for “mustard beetle (Phaedon cochleariae)”, “caterpillars” for “beetle larvae”

[16] = test system: caterpillars of the armyworm (Spodoptera exigua); experiment: Spodoptera exigua test; details: 500 ppm, cabbage leaves dipped
Method: as §1, with “Spodoptera exigua” for “Phaedon Larvae”, “caterpillars” for “larvae”, “armyworm (Spodoptera exigua)” for “mustard beetle (Phaedon cochleariae)”, “caterpillars” for “beetle larvae”

Compound | Kill rate in % after 6 d [1] [%] | Kill rate in % after 7 d [2] [%] | Kill rate in % after 7 d [3] [%] | Kill rate in % after 7 d [4] [%] | degree of damage to the plants in % damage ([5]; 125 g ai/ha) [%] | degree of damage to the plants in % damage ([6]; 125 g ai/ha) [%] | degree of damage to the plants in % damage [7] [%] | degree of damage to the plants in % damage ([8]; 125 g ai/ha) [%] | degree of damage to the plants in % damage ([9]; 125 g ai/ha) [%] | degree of damage to the plants in % damage ([10]; 125 g ai/ha) [%] | % efficacy [11] [%] | % efficacy [12] [%] | degree of damage to the plants in % damage ([5]; 250 g ai/ha) [%] | degree of damage to the plants in % damage [13] [%] | degree of damage to the plants in % damage ([6]; 250 g ai/ha) [%] | degree of damage to the plants in % damage ([8]; 250 g ai/ha) [%] | degree of damage to the plants in % damage ([9]; 250 g ai/ha) [%] | degree of damage to the plants in % damage [14] [%] | other results
Cc1ccc(-c2ccc(Cl)cc2)cc1C1(Cl)C(=O)NC(C)(C)C1=O (centres unmarked) [Ex. I-1-1] | 95 | 100 | 100 | 100 | 95 | 100 | 90 | 100 | 100 | 0 |  |  |  |  |  |  |  |  | Emax at 100 g/ha ([11]; Plasmopara viticola, 144 h, read-out: % efficacy): 100%; Emax at 100 g/ha ([12]; Venturia inaequalis, 240 h, read-out: % efficacy): 97%
CC1(C)NC(=O)C(Cl)(c2cc(-c3ccc(Cl)cc3)ccc2Cl)C1=O (centres unmarked) [Ex. I-1-2] |  | 100 | 100 | 100 | 90 | 95 | 100 | 100 | 90 | 0 | 100 | 96 |  |  |  |  |  |  | 
Cc1cc(C)c(C2(Cl)C(=O)NC3(CCOCC3)C2=O)cc1-c1ccc(Cl)cc1 (centres unmarked) [Ex. I-1-6] | 98 | 100 | 100 | 99 |  |  |  |  |  |  | 94 | 99 | 70 | 70 | 100 | 100 | 95 |  | 
Cc1cc(-c2ccc(Cl)cc2)cc(Cl)c1C1(Cl)C(=O)NC2(CCCOC2)C1=O (centres unmarked) [Ex. I-1-8] |  |  |  | 98 |  |  |  |  |  |  |  |  | 95 | 70 | 95 | 100 | 100 | 80 | 
CCOC1CCC2(CC1)NC(=O)C(Cl)(c1c(C)cc(-c3ccc(Cl)cc3)cc1CC)C2=O (centres unmarked) [Ex. I-1-10] |  |  |  |  |  |  |  |  |  |  |  |  | 100 | 80 | 100 | 100 | 100 | 80 | 
Cc1ccc(-c2ccc(Cl)cc2)cc1C1(Cl)C(=O)NC(C)(C(C)C)C1=O (centres unmarked) [Ex. I-1-11] |  | 100 | 100 | 99 |  |  |  |  |  |  | 100 | 100 | 95 |  | 90 | 100 | 100 |  | Kill rate in % after 7 d [15]: 100%; Kill rate in % after 7 d [16]: 90%; degree of damage to the plants in % damage ([10]; 250 g ai/ha): 0%
